For 90 molecules, melting point results are on record in a melting point compilation (Tetko et al.; mined from patent text by program, amines drawn as free bases though some values may be those of a salt).

What is called melting point is the temperature, or range, at which the solid turns liquid. As to `CN1C(=O)C(c2cccc(-c3cncnc3)c2)(c2cc(C#N)n(C)c2)N=C1N` (stereo not given), the melting point was in the range of 214 to 225 °C. In the case of `CCOC1=CCC(NC(C)=O)CC1` (stereo not given), the melting point was 100 to 102 °C. In the case of `CC(=O)OCc1c(Br)cccc1N1Cc2cc(C(C)(C)C)sc2C1=O` it was 172 to 173 °C; in that of `COc1ccc(C(O)CCc2ccccc2O)cc1` (stereo not given), 114 to 116 °C. With `COc1ccccc1N1CCN(CCCNC(=O)c2cccc3c(=O)c(C)c(-c4cccnc4)oc23)CC1` the figure was 134 to 137 °C; with `CCc1cc(=O)c2nc(OCCO[Si](c3ccccc3)(c3ccccc3)C(C)(C)C)ccc2[nH]1`, 209 to 210 °C; with `CN(C)CCCN(C)C(=O)C(Cc1ccccc1)NC(=O)c1cc2cc(Cl)ccc2[nH]1` (stereo not given), 187 to 190 °C. Molecule `COc1cccc([C@H]2O[C@H](CC(=O)Nc3cccc(CCC(=O)O)c3)C(=O)N(CC(C)(C)C)c3ccc(Cl)cc32)c1OC` registered a melting point of 172 to 173 °C. The molecule `CCOC(=O)C(C)(C)Oc1ccc(CCNC(=O)CCc2cc(C(C)(C)C)c(O)c(C(C)(C)C)c2)cc1` came in with a melting point of 168 to 171 °C. For `CC(=O)N1C(=O)N(c2cc(Cl)cc(Cl)c2)C(=O)C1=Cc1ccc(C#N)cc1`, the melting point worked out at 212 °C. In the case of `CC(=O)N1CCC(CNc2nc3ccccc3s2)CC1` it was 138 °C; in that of `O=S(c1ccccc1)c1cccnc1` (stereo not given), 56 °C; in that of `O=C(CCNC(=O)OCc1ccccc1)NCCSC(=O)c1ccccc1`, 115 to 118 °C. `CC1(C)C=C(CC(=O)O)C(C)(C)CC1` yielded a melting point of 50 to 54 °C. `COc1ccc(Cn2cnc3c(-c4ccco4)nc(C(F)(F)F)nc32)cc1`: the melting point lay within 149 to 150 °C. With `COC1CCC(OS(=O)(=O)c2ccc(C)cc2)C(COS(=O)(=O)c2ccc(C)cc2)O1` (stereo not given) the figure was 110 to 112 °C; with `Cc1cccc(C=CCC(C(=O)C=Cc2ccc(Cl)cc2)c2ccccc2)c1` (stereo not given), 89 to 93 °C. In turn, `CC(C)N(Cc1ccccc1)C(=O)C(=O)N1CCN(c2ccccc2C(C)(C)C)CC1` gave a melting point of 65 to 68 °C. The molecule `O=[N+]([O-])c1cc(Cl)ccc1-n1cccc1` registered a melting point of 55 to 56 °C. `CC(=O)CN1CCc2c(c(=O)oc3ccccc23)C1` came in with a melting point of 128 to 130 °C. Molecule `N#Cc1c(Cl)cc(Cl)c(CCC(=O)O)c1Cl` showed a melting point of 127 to 129 °C.

On to `CC(=O)OC(CN1C(=O)N(C(C)=O)C2(CC(C)(C)N(C)C(C)(C)C2)C1=O)CN1C(=O)N(C(C)=O)C2(CC(C)(C)N(C)C(C)(C)C2)C1=O`, for which the melting point is 105 to 108 °C.

As to `CCOC(=O)C(C)C(NC(C)=O)C(C(C)=O)C(=O)Nc1ccc(Cl)cc1` (stereo not given), the melting point fell in the range of 169 to 173 °C. Take `COc1cc(S(N)(=O)=O)cnc1N=Nc1cc(OC(C)C)c2ccccc2c1O`: the melting point was found to be 289 °C. In the case of `Cc1c(N)noc1C(F)(F)F` it was 34.5 to 36 °C; in that of `COC(=O)Cc1ccc(C(=O)OC)cn1`, 56 to 57 °C; in that of `CCCCCCCCCCCCCCCCCNC(=O)OCC(CO)Oc1ccon1` (stereo not given), 71 to 72 °C. In turn, `CC(=O)Nc1cc(Oc2ccc3c(c2)CCN3C(=O)Nc2ccc(OC(C)(C)C(=O)O)c(C(F)(F)F)c2)ncn1` displayed a melting point of 219 to 220 °C. Molecule `C=C(OCC)c1c(C)nc(C)nc1NCc1ccc(Br)cc1` came in with a melting point of 111 to 113 °C. Molecule `Cn1c(S(C)(=O)=O)nc2ccccc21` gave a melting point of 131 to 132 °C. The molecule `CCCC1NC(C(=O)O)Cc2c1[nH]c1ccccc21` (stereo not given) yielded a melting point of 210 to 211 °C. In the case of `O=C(Nc1ccc(-c2ccccc2Cl)[nH]c1=O)OCc1ccccc1`, the melting point lay in the range of 213 to 215 °C. `COC(=O)c1cnoc1-c1ccc(F)cc1` had a melting point of 92 to 93 °C. With `Nn1cc(C(=O)NCc2ccc(Cl)cc2)c(=O)c2cc(CCCO)ccc21`, the melting point is 187 to 188 °C. As to `CC(C)C1NC(=O)C(CSSCC2NC(=O)C(C(C)C)NC2=O)NC1=O` (stereo not given), the melting point was found to be 270 °C. In turn, `CN1CCC(c2nc(-c3ccncc3)c(-c3ccc(F)cc3)[nH]2)CC1` had a melting point of 259 to 261 °C. In the case of `O=C(Nc1ccccc1)C1(C=Cc2ccccc2)SC=CC1OC(F)F` (stereo not given), the melting point lay within 80 to 82 °C.

Turning to `CCOC(=O)c1ccc(/C=C(\C)c2ccc3c(c2)C(C)(C)CCC3(C)C)cc1`, the melting point was 90 to 91 °C. As to `CC(COc1ccc2ccc(N)nc2n1)CN(C)C` (stereo not given), the melting point came to 108 °C. In the case of `NC(=O)c1cnc2c(N)cccc2c1` it was 164 to 165 °C; in that of `CSc1ccc(-n2c(-c3ccc(C)cc3)nc(SC)c(C#N)c2=O)cc1`, 230 to 233 °C. In the case of `Cc1ccc(-c2ccc(C(=O)Nc3cc4ncc(CN5CCCC5)cc4cc3C)cc2F)cc1` it was 175 to 178 °C.

`CC(=O)Nc1ccc(C2=NNC(=O)CC2)cc1[N+](=O)[O-]` had a melting point of 223 °C.

The molecule `COC(=O)C(=CN(C)C)N(C)c1nc(-c2ccc(Br)cc2)cs1` returned a melting point of 184 to 185 °C. On to `CN1C(=O)CC[C@]2(C)c3ccc(-c4cccc(F)c4F)cc3CC[C@@H]12`, for which the melting point was in the range of 147 to 148 °C. Molecule `O=C(O)CP(=O)(O)CCc1ccccc1` gave a melting point of 120 to 121 °C. In turn, `COc1cccc(C2OCC(C)(C)C2(O)C(C)(C)C)c1` (stereo not given) had a melting point of 83 to 83.5 °C. For the molecule `COCCc1cc([N+](=O)[O-])cc([N+](=O)[O-])c1`, the melting point was determined as 65 °C. In turn, `CC(C)[C@H](NC(=O)OCc1csc(N(C)C)n1)C(=O)N[C@@H](Cc1ccccc1)[C@@H](O)C[C@H](Cc1ccccc1)NC(=O)OCc1cncs1` yielded a melting point of 157 to 159 °C. In the case of `COc1cc(C(C)C)c2c(c1)S(=O)(=O)N(COc1cc(Cl)nn1-c1ccccc1)C2=O` it was 109 to 110 °C. In the case of `CC(=O)OCc1ccc(N(c2ccccc2)c2ccccc2)cc1`, the melting point was 86 to 89 °C. Take `NC(=Nc1cccc(CNCCC(=O)Nc2ccc3c(c2)CCN3Cc2cccc3ccccc23)c1)c1cccs1`: the melting point fell in the range of 185 to 187 °C. Turning to `Cc1c(C)c2c(c(Cl)c1C=O)OCC2`, the melting point was found to be 129 °C. `CCOCc1nc(N)c(N=O)c(=O)[nH]1` yielded a melting point of 163 to 165 °C. With `CC1(C)CC(=O)c2c(SCc3ccccc3)cn(-c3ccccn3)c2C1` the figure was 190 to 192 °C; with `CN(C[C@H]1CC[C@H](C(=O)O)CC1)c1ncc(Br)cn1`, 111 to 113 °C. `CCc1ccc(Cc2c(OC)cccc2OC)cc1` registered a melting point of 62.5 to 66.5 °C. With `CC(C)(C)c1cc(Cc2ccc(Cl)nn2)c(O)c(C(C)(C)C)c1` the figure was 143 to 144 °C; with `CCOC(=O)c1cn(Cc2ccccc2)c2cc(C(C)C)nn2c1=O`, 135 to 140 °C; with `CCN(CC)c1cc(C)c2c(c1)C(=O)OC2=O`, 128 °C. With `COc1ccc(NC(=O)c2ccc(F)c(F)c2)cc1NC(=S)Nc1ccc(C(=O)O)cc1` the figure was 200 to 203 °C.

For `CCCC1(C)OC(=O)C(c2ccc(F)c(F)c2)=C1c1ccc(S(C)(=O)=O)cc1` (stereo not given), the melting point lay in the range of 89 to 90 °C.

Molecule `CC(C)(O)Cn1c(CON=C2CCCC2)nc2c(N)nc3cccnc3c21` returned a melting point of 195 to 197 °C. With `COC1=C(OC)C(=O)C2=C(CC(CCCCCCCCNC(C)=O)C2)C1=O` the figure was 93 to 96 °C; with `CC1(C)OC(=S)Nc2ccc(-c3ccc(F)cc3)cc21`, 221 to 223 °C; with `CN(C)C(=O)OC1c2ccccc2C(=O)N1c1ccc2ccc(Cl)nc2n1` (stereo not given), 217 to 218 °C. Molecule `CCOC(=O)c1cn(C)nc1NCc1ccc(-c2ccccc2C#N)cc1` showed a melting point of 151 to 152 °C. As for `C(=Cc1ccccc1)C=Nc1ccc(Cc2ccc(N=CC=Cc3ccccc3)cc2)cc1`, the melting point lay in the range of 162 to 164 °C. For `CN1C(=O)CC[C@]2(C)c3ccc(-c4ccc(C(F)(F)F)cc4)cc3CC[C@@H]12`, the melting point was in the range of 86 to 89 °C. The molecule `O=C(Nc1ccc(F)cc1F)Nc1oc(=O)c2ccc(Cl)cc2c1-c1ccccc1` gave a melting point of 196 to 197 °C. `C=C(C)C(=O)N[C@@H](CCC(=O)O)C(=O)O` displayed a melting point of 128 to 130 °C. In the case of `O=C(NCCc1nnn[nH]1)C(CS)C(F)(F)F` (stereo not given), the melting point was in the range of 182 to 184 °C. Consider `O=C(NC1CCCCC1)NS(=O)(=O)c1cnccc1NC1CCCCC1`, for which the melting point is 165 to 167 °C.

On to `COc1cc2c(cc1[N+](=O)[O-])NC(=O)CN(CC1CC1)C2`, for which the melting point was found to be 178 °C. Consider `CCCc1c(C#N)c2ccc(C(=O)OC)cc2n1Cc1ccccc1Cl`, for which the melting point fell in the range of 132 to 133 °C. As to `CC(C)(NCCONC(C)(C)C(=O)CCn1ccnc1[N+](=O)[O-])C(=O)CCn1ccnc1[N+](=O)[O-]`, the melting point fell in the range of 90 to 92 °C.

With `O=C(O)CCCCCN1CCCCC1`, the melting point was in the range of 74 to 76 °C. Molecule `COc1ccc(Cl)cc1C(=O)NCCc1ccc(-c2ccc(OC(C)(C)C(=O)O)cc2)cc1` displayed a melting point of 145 °C. `Cc1ccc(N)cc1C(=O)O`: the melting point lay within 142 to 144 °C. In turn, `COc1ccc(C2(C#Cc3ccc(C(=O)O)cc3)CCC(=O)CC2)cc1OC1CCCC1` returned a melting point of 170 to 171 °C.

The molecule `COc1ccc2c(c1)C(N=Cc1cc(OC)c(OC)cc1[N+](=O)[O-])CCO2` (stereo not given) displayed a melting point of 143 to 145 °C. For `Nc1ncnc2cc(CCl)ccc12`, the melting point is above 300 °C. With `CCOc1cc(C2=NN(Cc3ccc(N)cc3)C(=O)CC2)ccc1OC` the figure was 120 °C; with `CC(C)[C@H]1[C@@H](O)CC(=O)N1c1ccc(C#N)c(Cl)c1`, 100 to 102 °C; with `CCC(C)n1nc(C)n(-c2ccc(N3CCCN(c4ccc(C(=O)OC)cc4)CC3)cc2)c1=O` (stereo not given), 152 to 153 °C. `Nc1cc(-c2ccc(Cl)c(Cl)c2)[nH]n1` yielded a melting point of 169 to 170 °C. With `CSCC(O)C1(Sc2ccccc2)C(=O)N2C1CCOC2(C)C` (stereo not given), the melting point lay within 83 to 85 °C. For `COC(=O)/C=C/c1ccc(/C=C/c2ccncc2)nc1`, the melting point was above 143 °C. `NC(CCCCCCCCC(N)=NO)=NO` yielded a melting point of 182 °C. For the molecule `COC(=O)C(NC(=O)OC(C)(C)C)c1ccc(OS(=O)(=O)C(F)(F)F)cc1` (stereo not given), the melting point was 67 to 67.6 °C.
